US20130209550A1, “Anti-Viral Azide Containing Compounds” (LIFE TECHNOLOGIES CORPORATION, priority 2010, published 2013)

How the values were obtained:
[1] = tested on: HIV; test: Infectivity of azide-labeled HIV, luciferase reporter assay on TZM/BI reporter cell line; assay type: cell-based; settings: HIVNL4-3 labeled in CEMx174 cells; virus incubated 12 hours on TZM/BI; single cycle replication system; two luciferase reagents; FIGS. 3 and 4
Description: CEMx174 cells were transfected with HIVNL4-3 in a T-150 flask and the virus production was monitored by reverse transcriptase activity until peak virus production occurred (usually 7 to 9 days post transfection). Prior to transfection, the CEMx174 cells were spiked with the following azide-modified biomolecules: 15-azidopentadecanoic acid (50-100 μM), 12-azidododecanoic acid (50-100 μM), tetraacetylated N-azidoacetylgalactosamine (20-40 μM), and tetraacetylated N-azidoacetyl-D-mannosamine (20-40 μM).
Labeled virus was also obtained from the transfected cells. More specifically, virus-containing supernatants were collected and virus was purified through 20% sucrose as previously described (Graham, D. R. et al., Proteomics 2008, 8:4919-30). The purified virus was then mixed with the CLICK-IT® detection reagent, tetramethylrhodamine (TAMRA) alkyne and the CLICK-IT® Protein Reaction Buffer Kit (Invitrogen, Carlsbad, Calif.). Virus samples were run on a one-dimensional gel to reveal azide-labeled viral proteins (FIG. 2). […]
To examine the effect of the azide-modified biomolecules on the innate biology of the virus, the azide-labeled virus from the transfected cells was isolated and tested in cell infection studies. […] Viral infectivity was determined by measuring cellular luciferase activities with two different luciferase reagents.

[2] = tested on: Nuclear-GFP BacMam 2.0 Virus (baculovirus); test: Infectivity of PTM analog-labeled Nuclear-GFP BacMam baculovirus in U2-OS cells; assay type: cell-based; settings: virus labeled in Sf9 cells with 50 uM analog; U2-OS cells incubated overnight with labeled virus; FIG. 5
Excerpt: Inhibition of insect cell baculovirus infectivity with azido fatty acid analogs: The BacMam system uses a modified insect cell virus (baculovirus) as a vehicle to efficiently deliver and express genes in mammalian cells. A Nuclear-GFP BacMam 2.0 expression system (Invitrogen, C10602) was used as a model to determine if PTM analog labeling of the virus would affect mammalian cell infectivity. Viruses were labeled with various PTM analogs and used to infect mammalian cells. Infectivity was determined by the expression of nuclear-GFP, as viral entry into the cell is required for expression of GFP protein, […]
Characterization of BacMam virus production: To verify, quantitate, and normalize the amount of enriched viruses obtained from insect cell supernatants, samples of each virus were lysed in SDS sample preparation buffer (SPB), sonicated with a probe tip sonicator, and heated at 90C to completely dissolve the viral proteins. Viral protein concentrations of the lysates were then determined. […]
Mammalian cell infection protocol: To determine if the PTM analog-labeled viruses retain the ability to infect mammalian cells, 50,000 U2-OS cells (human osteosarcoma cell line) were plated onto a 6 well-chamber glass bottom plate. […] The following day cells were imaged on AMG EVOS fluorescence microscope at 10× or 20× magnification using both white light and GFP filters (FIG. 5). […]

Row | Structure (SMILES) | impact on the infectivity of the virus (cellular luciferase activity) [1] | nuclear-GFP expression (viral entry) [2]
1 | [N-]=[N+]=NCCCCCCCCCCCC(=O)O [12-azidododecanoic acid] | profound impact on the infectivity of the virus | no nuclear-GFP expression
2 | [N-]=[N+]=NCCCCCCCCCCCCCCC(=O)O [15-azidopentadecanoic acid] |  | no nuclear-GFP expression
